Source: patent US20250154169A1, “COMPOUNDS AND METHODS FOR MODULATING SPLICING” (REMIX THERAPEUTICS INC., priority 2021, published 2025)
pIC50: −log10 of the molar value. Like-named read-outs stand apart in the source and are kept apart here.

Legend:
Assay type in all cases: cell-based, human
HTT mRNA [1] = experiment: Splicing RT-qPCR gene panel, HTT canonical junction (CJ) mRNA; conditions: Homo sapiens, Tables 4A/4B, read-out: HTT (IC50, decrease in CJ mRNA, gene panel)
Experimental: (§1) Compounds described herein were used to modulate RNA transcript abundance in cells. The expression of a target mRNA was measured by detecting the formation of an exon-exon junction in the canonical transcript (CJ). A compound mediated exon-inclusion event was detected by observing an increase in formation of a new junction with an alternative exon (AJ). Real-time qPCR assays were used to detect these splicing switches and interrogate the potency of various compounds towards different target genes. A high-throughput real time quantitative PCR (RT-qPCR) assay was developed to measure these two isoforms of the mRNA (CJ and AJ) for exemplary genes, such as HTT, SMN2, and MYB, together with a control housekeeping gene, GAPDH or GUSB or PPIA, used for normalization. Briefly, the A673 or K562 cell line was treated with various compounds described herein (e.g., compounds of Formula (I)). After treatment, the levels of the HTT, MYB, or SMN2 mRNA targets were determined from each sample of cell lysate by cDNA synthesis followed by qPCR.
(§2) The A673 cell line was cultured in DMEM with 10% FBS. Cells were diluted with full growth media and plated in a 96-well plate (15,000 cells in 100 ul media per well). The plate was incubated at 37° C. with 5% CO2 for 24 hours to allow cells to adhere. An 11-point 3-fold serial dilution of the compounds was made in DMSO then diluted in media in an intermediate plate. Compounds were transferred from the intermediate plate to the cell plate with the top dose at a final concentration of 10 uM in the well. Final DMSO concentration was kept at or below 0.25%. The cell plate was returned to the incubator at 37° C. with 5% CO2 for an additional 24 hours.
(§3) The K562 cell line was cultured in IMDM with 10% FBS. For K562, cells were diluted with full growth media and plated in either a 96-well plate (50,000 cells in 50 uL media per well) or a 384-well plate (8,000-40,000 cells in 45 uL media per well). An 11-point 3-fold serial dilution of the compounds were made in DMSO then diluted in media in an intermediate plate. Compound was transferred from the intermediate plate to the cell plate with the top dose at a final concentration of 10 uM in the well. Final DMSO concentration was kept at or below 0.25%. Final volume was 100 uL for 96-well plate and 50 uL for 384-well plate. The cell plate was then placed in an incubator at 37° C. with 5% CO2 for 24 hours.
(§4) The cells were then gently washed with 50 uL-100 uL cold PBS before proceeding to addition of lysis buffer. 30 uL-50 uL of room temperature lysis buffer with DNAse I (and optionally RNAsin) was added to each well. Cells were shaken/mixed thoroughly at room temperature for 5-10 minutes for lysis to take place and then 3 uL-5 uL of room temperature stop solution was added and wells were shaken/mixed again. After 2-5 minutes, the cell lysate plate was transferred to ice for RT-qPCR reaction setup. The lysates could also be frozen at −80° C. for later use.
(§5) In some cases, a direct lysis buffer was used. An appropriate volume of 3× lysis buffer (10 mM Tris, 150 mM NaCl, 1.5%-2.5% Igepal and 0.1-1 U/uL RNAsin, pH 7.4) was directly added to either K562 or A673 cells in media and mixed by pipetting 3 times. The plates were then incubated at room temperature with shaking/rocking for 20-50 minutes to allow for lysis to take place. After this time, the cell lysate plate was transferred to ice to set up for the RT-qPCR reactions. The lysates could also be frozen at −80° C. for later use.
(§6) To set up 10 uL RT-qPCR reactions, cell lysates were transferred to 384-well qPCR plates containing the master mix according to the table below. The plates were sealed, gently vortexed, and spun down before the run. The volumes were adjusted accordingly in some instances where the reaction was carried in 20 μL. The table below summarizes the components of the RT-qPCR reactions:
(§7) The RT-qPCR reaction was performed using a QuantStudio (ThermoFisher) under the following fast cycling conditions. […]

Target C mRNA = experiment: Splicing RT-qPCR gene panel, Target C canonical junction (CJ) mRNA; conditions: Homo sapiens, Tables 4A/4B, read-out: Target C (IC50, decrease in CJ mRNA, gene panel)
Experimental: as §1, §2, §3, §4, §5, §6, §7

SMN2 mRNA = experiment: Splicing RT-qPCR gene panel, SMN2 canonical junction (CJ) mRNA; conditions: Homo sapiens, Tables 4A/4B, read-out: SMN2 (IC50, decrease in CJ mRNA, gene panel)
Experimental: as §1, §2, §3, §4, §5, §6, §7

MYB mRNA = experiment: Splicing RT-qPCR assay, MYB canonical (CJ) and alternative (AJ) junction mRNA; conditions: Homo sapiens; for AC50: read-out: MYB AJ (AC50, increase in alternative junction mRNA)
How it was run: (§8)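 One-step RT-qPCR on cell lysates, CJ and AJ isoforms quantified; housekeeping normalization GAPDH/GUSB (K562) or PPIA (A673). Cells: A673 in DMEM/10% FBS or K562 in IMDM/10% FBS. Compounds 11-pt 3-fold, top 10 uM, 24 h, 37 °C, 5% CO2.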

HTT mRNA [2] = experiment: Splicing RT-qPCR assay, HTT canonical (CJ) and alternative (AJ) junction mRNA; conditions: Homo sapiens, A673 or K562 cells, 24 hours compound treatment; for pIC50: read-out: HTT CJ (IC50, decrease in canonical junction mRNA); for AC50: read-out: HTT AJ (AC50, increase in alternative junction mRNA)
How it was run: as §8

[3] = Tables 4A/4B, canonical junction qPCR panel, read-out: MYB (IC50, decrease in CJ mRNA, gene panel)
[4] = 24 h, A673 or K562 cells, 24 hours compound treatment, RT-qPCR
[5] = 24 h, A673 or K562 cells, 24 hours compound treatment, RT-qPCR, read-out: MYB CJ (IC50, decrease in canonical junction mRNA)

Row | SMILES | pIC50 (HTT mRNA [1]) | pIC50 (Target C mRNA) | pIC50 (SMN2 mRNA) | pIC50 (MYB mRNA; [3]) | pIC50 (MYB mRNA; [5]) | pIC50 (HTT mRNA [2]; 24 h) | AC50 (MYB mRNA; [4]) | AC50 (HTT mRNA [2]) | AC50 (MYB mRNA; A673 or K562 cells, 24 hours compound treatment, RT-qPCR) | pIC50 (MYB mRNA; A673 or K562 cells, 24 hours compound treatment, RT-qPCR, read-out: MYB CJ (IC50, decrease in canonical junction mRNA)) | pIC50 (HTT mRNA [2])
1 | Cc1cn2cc(NC(=O)c3ccc(N4CCNC(C)C4)c4cn(C)nc34)cc(F)c2n1 (stereo not drawn) [Compound 228] | 6.00 to 7.00 | 6.00 to 7.00 | > 7.00 | > 7.00 |  |  |  |  |  |  | 
2 | CCOc1nc(NC(=O)c2ccc(N3CC[C@@H](NC)C3)c3cn(C)nc23)cn2cc(C)nc12 [Compound 433] | 5.00 to 6.00 | 5.00 to 6.00 | > 7.00 | 6.00 to 7.00 |  |  |  |  |  |  | 
3 | Cc1cn2cc(N(C)C(=O)c3ccc(N4CCNCC4)c4cn(C)nc34)cc(F)c2n1 [Compound 386, N-{8-fluoro-2-methylimidazo[1,2-a]pyridin-6-yl}-N,2-dimethyl-4-(piperazin-1-yl) indazole-7-carboxamide] | < 5.00 | < 5.00 | < 5.00 | < 5.00 |  |  |  |  |  |  | 
4 | CCn1cc2c(N3CCNCC3)ccc(C(=O)Nc3cc(F)c4nc(C)cn4c3)c2n1 [Compound 288, 2-ethyl-N-{8-fluoro-2-methylimidazo[1,2-a]pyridin-6-yl}-4-(piperazin-1-yl)indazole-7-carboxamide] | 5.00 to 6.00 | 5.00 to 6.00 | > 7.00 | > 7.00 |  |  |  |  |  |  | 
5 | Cc1cn2cc(NC(=O)c3ccc(N4C[C@H]5CC[C@@H](C4)N5)c4cn(C)nc34)cc(Cl)c2n1 [Compound 279] | 5.00 to 6.00 | 5.00 to 6.00 | > 7.00 | > 7.00 |  |  |  |  |  |  | 
6 | C=Cn1cc2c(N3CCNCC3)ccc(C(=O)Nc3cc(F)c4nc(C)cn4c3)c2n1 [Compound 363, 2-ethenyl-N-{8-fluoro-2-methylimidazo[1,2-a]pyridin-6-yl}-4-(piperazin-1-yl) indazole-7-carboxamide] | > 7.00 | > 7.00 | > 7.00 | > 7.00 |  |  |  |  |  |  | 
7 | Cc1cn2cc(NC(=O)c3ccc(N4CCC(N5C6CNCC65)C4)c4cn(C)nc34)cc(F)c2n1 (stereo not drawn) [Compound 622, 4-(3-{3,6-diazabicyclo[3.1.0]hexan-6-yl}pyrrolidin-1-yl)-N-{8-fluoro-2-methylimidazo[1,2-a]pyridin-6-yl}-2-methylindazole-7-carboxamide] |  |  |  |  |  |  |  | > 10 µM | > 10000 nM | 5.00 to 6.00 | < 5.00
8 | CCn1cc2c(N3CC4(CCNC4)C3)ccc(C(=O)Nc3cc(F)c4nc(C)cn4c3)c2n1 [Compound 491, 4-{2,6-diazaspiro[3.4]octan-2-yl}-2-ethyl-N-{8-fluoro-2-methylimidazo[1,2-a]pyridin-6-yl}indazole-7-carboxamide] |  |  |  |  | 6.00 to 7.00 | 5.00 to 6.00 | 1000 to 10000 nM | > 10 µM |  |  | 
9 | Cn1cc2c(N3CCNCC3)ccc(C(=O)Nc3cc(F)c4nc(CF)oc4c3)c2n1 [Compound 514, N-[4-fluoro-2-(fluoromethyl)-1,3-benzoxazol-6-yl]-2-methyl-4-(piperazin-1-yl) indazole-7-carboxamide] |  |  |  |  | > 7.00 | 6.00 to 7.00 | < 100 nM | 0.1 to 1 µM |  |  | 
10 | CCn1cc2c(OC3CCNC3)ccc(C(=O)Nc3cc(F)c4nc(C)cn4c3)c2n1 (stereo not drawn) [Compound 498, 2-ethyl-N-{8-fluoro-2-methylimidazo[1,2-a]pyridin-6-yl}-4-(pyrrolidin-3-yloxy) indazole-7-carboxamide] |  |  |  |  | 6.00 to 7.00 | 6.00 to 7.00 | 100 to 1000 nM | 1 to 10 µM |  |  | 
11 | CCn1cc2c(N3CCC(N(C)C)CC3)ccc(C(=O)Nc3cc(F)c4nc(C)cn4c3)c2n1 [Compound 395, 4-[4-(dimethylamino)piperidin-1-yl]-2-ethyl-N-{8-fluoro-2-methylimidazo[1,2-a]pyridin-6-yl}indazole-7-carboxamide] |  |  |  |  | > 7.00 | 5.00 to 6.00 | < 100 nM | 1 to 10 µM |  |  | 

Second part, led by results:

Row | pIC50 (HTT mRNA [1]) | pIC50 (Target C mRNA) | pIC50 (SMN2 mRNA) | pIC50 (MYB mRNA; [3]) | pIC50 (MYB mRNA; [5]) | pIC50 (HTT mRNA [2]; 24 h) | SMILES | AC50 (MYB mRNA; [4]) | AC50 (HTT mRNA [2]) | AC50 (MYB mRNA; A673 or K562 cells, 24 hours compound treatment, RT-qPCR) | pIC50 (MYB mRNA; A673 or K562 cells, 24 hours compound treatment, RT-qPCR, read-out: MYB CJ (IC50, decrease in canonical junction mRNA)) | pIC50 (HTT mRNA [2])
12 |  |  |  |  | > 7.00 | 6.00 to 7.00 | CCn1cc2c(N3CCC(CC)(NC)CC3)ccc(C(=O)Nc3cc(F)c4nc(C)cn4c3)c2n1 [Compound 515, 2-ethyl-4-[4-ethyl-4-(methylamino)piperidin-1-yl]-N-{8-fluoro-2-methylimidazo[1,2-a]pyridin-6-yl}indazole-7-carboxamide] | < 100 nM | 0.1 to 1 µM |  |  | 
13 |  |  |  |  | < 5.00 | < 5.00 | CCn1cc2c(N3CC[C@](C)(NC)C3)ccc(C(=O)Nc3cc(F)c4nc(C)cn4c3)c2n1 [Compound 548, 2-ethyl-N-{8-fluoro-2-methylimidazo [1,2-a]pyridin-6-yl}-4-[(3S)-3-methyl-3-(methylamino)pyrrolidin-1-yl]indazole-7-carboxamide] | > 10000 nM | > 10 µM |  |  | 
14 |  |  |  |  | 6.00 to 7.00 | < 5.00 | Cc1cn2cc(NC(=O)c3ccc(N4CCN[C@@H](C(C)C)C4)c4cn(C)nc34)cc(F)c2n1 [Compound 589, N-{8-fluoro-2-methylimidazo[1,2-a]pyridin-6-yl}-4-[(3S)-3-isopropylpiperazin-1-yl]-2-methylindazole-7-carboxamide] | 1000 to 10000 nM | > 10 µM |  |  | 
15 |  |  |  |  | > 7.00 | < 5.00 | Cc1cn2cc(NC(=O)c3ccc(N4CC[C@@H](NC(C)C)C4)c4cn(C)nc34)cc(F)c2n1 [Compound 524, N-{8-fluoro-2-methylimidazo[1,2-a]pyridin-6-yl}-4-[(3R)-3-(isopropylamino)pyrrolidin-1-yl]-2-methylindazole-7-carboxamide] | < 100 nM | > 10 µM |  |  | 
16 |  |  |  |  | 6.00 to 7.00 | 5.00 to 6.00 | CCn1cc2c(N3CC[C@@H](N(C)C)C3)cc(O)c(C(=O)Nc3cc(F)c4nc(C)cn4c3)c2n1 [Compound 637] | 1000 to 10000 nM | 1 to 10 µM |  |  | 
17 |  |  |  |  | > 7.00 | 5.00 to 6.00 | CCn1cc2c(N3CCC(NC4CCC4)CC3)ccc(C(=O)Nc3cc(F)c4nc(C)cn4c3)c2n1 [Compound 543, 4-[4-(cyclobutylamino)piperidin-1-yl]-2-ethyl-N-{8-fluoro-2-methylimidazo[1,2-a]pyridin-6-yl}indazole-7-carboxamide] | < 100 nM | 1 to 10 µM |  |  | 
18 |  |  |  |  | < 5.00 | < 5.00 | CN[C@@H]1CCN(c2ccc(C(=O)Nc3nc(OC)c4nc(C)cn4c3F)c3nn(C)cc23)C1 [Compound 651] | > 10000 nM | > 10 µM |  |  | 
